The source made the active and inactive calls.
Tests used:
[1] = target: Cell division cycle 7-related protein kinase (Homo sapiens, UniProt O00311)
[2] = target: Cyclin-dependent kinase 17 (Homo sapiens, UniProt Q00537)
[3] = target: T1, Cyclin-dependent kinase-like 5 (Homo sapiens, UniProt O76039)
T1 sequence (O76039 whole entry): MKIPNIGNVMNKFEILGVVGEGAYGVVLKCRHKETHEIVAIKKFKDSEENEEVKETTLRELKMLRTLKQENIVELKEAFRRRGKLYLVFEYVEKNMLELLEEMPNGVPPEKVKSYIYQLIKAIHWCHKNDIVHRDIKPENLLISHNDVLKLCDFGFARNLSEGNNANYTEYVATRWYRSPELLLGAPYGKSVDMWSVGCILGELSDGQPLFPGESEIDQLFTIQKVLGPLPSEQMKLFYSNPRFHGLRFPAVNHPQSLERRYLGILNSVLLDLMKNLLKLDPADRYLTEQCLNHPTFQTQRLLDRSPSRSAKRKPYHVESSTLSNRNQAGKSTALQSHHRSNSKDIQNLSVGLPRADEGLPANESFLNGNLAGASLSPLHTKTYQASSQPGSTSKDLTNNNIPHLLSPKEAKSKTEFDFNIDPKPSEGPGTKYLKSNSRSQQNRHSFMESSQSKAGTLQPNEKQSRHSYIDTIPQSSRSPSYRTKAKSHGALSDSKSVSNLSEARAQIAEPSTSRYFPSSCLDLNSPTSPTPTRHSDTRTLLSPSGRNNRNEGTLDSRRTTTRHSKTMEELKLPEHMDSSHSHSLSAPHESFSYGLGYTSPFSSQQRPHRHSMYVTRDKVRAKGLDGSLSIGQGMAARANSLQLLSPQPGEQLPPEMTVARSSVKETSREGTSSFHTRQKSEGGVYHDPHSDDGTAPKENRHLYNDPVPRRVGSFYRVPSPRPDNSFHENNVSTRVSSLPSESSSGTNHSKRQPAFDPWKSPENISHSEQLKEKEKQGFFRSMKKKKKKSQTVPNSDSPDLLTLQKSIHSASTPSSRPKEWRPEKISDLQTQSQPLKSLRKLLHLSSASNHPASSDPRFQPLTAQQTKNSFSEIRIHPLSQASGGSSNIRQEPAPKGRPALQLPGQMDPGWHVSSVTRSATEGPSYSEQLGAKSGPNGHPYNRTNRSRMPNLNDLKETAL

[4] = target: Hepatocyte growth factor receptor (Homo sapiens, UniProt P08581)
Hepatocyte growth factor receptor, sequence (P08581 whole entry): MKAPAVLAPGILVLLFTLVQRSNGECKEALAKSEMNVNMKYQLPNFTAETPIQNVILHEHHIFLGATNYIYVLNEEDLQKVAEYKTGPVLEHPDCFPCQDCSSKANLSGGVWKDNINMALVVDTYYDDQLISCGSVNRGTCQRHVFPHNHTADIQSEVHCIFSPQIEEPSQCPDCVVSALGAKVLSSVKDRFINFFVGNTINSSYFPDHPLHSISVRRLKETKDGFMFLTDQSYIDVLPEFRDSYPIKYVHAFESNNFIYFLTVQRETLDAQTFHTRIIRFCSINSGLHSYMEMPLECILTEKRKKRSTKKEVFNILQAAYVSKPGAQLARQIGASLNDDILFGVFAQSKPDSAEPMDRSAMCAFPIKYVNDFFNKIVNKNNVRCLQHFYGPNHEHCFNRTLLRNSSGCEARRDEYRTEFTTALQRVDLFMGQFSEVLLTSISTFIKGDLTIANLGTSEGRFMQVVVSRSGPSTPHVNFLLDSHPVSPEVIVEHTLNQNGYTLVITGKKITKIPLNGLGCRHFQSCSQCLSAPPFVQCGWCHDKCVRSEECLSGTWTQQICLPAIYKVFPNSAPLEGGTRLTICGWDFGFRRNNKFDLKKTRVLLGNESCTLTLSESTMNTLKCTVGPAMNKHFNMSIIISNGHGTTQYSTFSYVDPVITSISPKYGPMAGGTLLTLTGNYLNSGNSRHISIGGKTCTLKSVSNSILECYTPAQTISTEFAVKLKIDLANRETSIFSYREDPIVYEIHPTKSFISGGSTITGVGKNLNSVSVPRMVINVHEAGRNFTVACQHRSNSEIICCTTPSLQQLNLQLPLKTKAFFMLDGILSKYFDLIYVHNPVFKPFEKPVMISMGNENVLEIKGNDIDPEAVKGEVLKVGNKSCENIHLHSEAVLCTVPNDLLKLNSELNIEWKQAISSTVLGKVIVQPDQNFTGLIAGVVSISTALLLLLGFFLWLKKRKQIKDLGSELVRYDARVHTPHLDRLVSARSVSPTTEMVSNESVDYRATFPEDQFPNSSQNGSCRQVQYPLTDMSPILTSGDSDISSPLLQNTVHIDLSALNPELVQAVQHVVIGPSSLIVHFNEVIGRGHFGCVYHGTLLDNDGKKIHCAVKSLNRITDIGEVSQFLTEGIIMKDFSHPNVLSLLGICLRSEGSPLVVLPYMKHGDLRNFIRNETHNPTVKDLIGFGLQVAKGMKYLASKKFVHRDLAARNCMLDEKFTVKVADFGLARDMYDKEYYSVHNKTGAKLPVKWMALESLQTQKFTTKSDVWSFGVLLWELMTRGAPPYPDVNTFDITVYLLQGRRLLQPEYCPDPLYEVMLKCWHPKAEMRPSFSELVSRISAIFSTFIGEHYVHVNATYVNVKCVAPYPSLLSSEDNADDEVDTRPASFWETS

[5] = target: Serine/threonine-protein kinase PAK 6 (Homo sapiens, UniProt Q9NQU5)
[6] = target: Membrane-associated progesterone receptor component 1 (Homo sapiens, UniProt O00264)
Membrane-associated progesterone receptor component 1, sequence (O00264 whole entry): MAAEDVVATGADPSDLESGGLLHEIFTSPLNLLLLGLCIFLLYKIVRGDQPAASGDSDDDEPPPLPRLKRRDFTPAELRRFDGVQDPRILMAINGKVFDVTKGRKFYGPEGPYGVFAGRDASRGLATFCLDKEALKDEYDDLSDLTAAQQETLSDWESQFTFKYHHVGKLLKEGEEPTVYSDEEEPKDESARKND

[7] = target: Protein kinase C theta type (Homo sapiens, UniProt Q04759)
Protein kinase C theta type, sequence (Q04759 whole entry): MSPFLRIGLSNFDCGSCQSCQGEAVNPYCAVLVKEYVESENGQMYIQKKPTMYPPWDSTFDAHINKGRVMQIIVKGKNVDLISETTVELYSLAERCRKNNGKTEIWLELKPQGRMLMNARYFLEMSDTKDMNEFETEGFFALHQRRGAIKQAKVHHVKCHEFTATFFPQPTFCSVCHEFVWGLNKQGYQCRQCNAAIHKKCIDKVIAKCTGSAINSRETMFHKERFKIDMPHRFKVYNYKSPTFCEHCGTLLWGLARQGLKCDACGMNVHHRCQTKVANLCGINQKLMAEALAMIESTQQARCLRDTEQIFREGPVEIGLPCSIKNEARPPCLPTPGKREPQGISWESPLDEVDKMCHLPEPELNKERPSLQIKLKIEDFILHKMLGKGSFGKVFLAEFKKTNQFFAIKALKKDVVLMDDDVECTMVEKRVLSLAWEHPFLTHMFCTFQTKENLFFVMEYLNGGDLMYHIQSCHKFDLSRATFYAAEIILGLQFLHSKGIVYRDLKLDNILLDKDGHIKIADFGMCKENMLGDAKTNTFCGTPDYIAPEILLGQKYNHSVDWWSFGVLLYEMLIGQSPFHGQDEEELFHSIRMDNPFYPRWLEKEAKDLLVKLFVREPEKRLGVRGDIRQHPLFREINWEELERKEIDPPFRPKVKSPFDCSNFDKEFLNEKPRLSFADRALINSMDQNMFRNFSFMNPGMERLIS

[8] = target: T2, Protein kinase C zeta type (Homo sapiens, UniProt Q05513)
T2 sequence (Q05513 whole entry): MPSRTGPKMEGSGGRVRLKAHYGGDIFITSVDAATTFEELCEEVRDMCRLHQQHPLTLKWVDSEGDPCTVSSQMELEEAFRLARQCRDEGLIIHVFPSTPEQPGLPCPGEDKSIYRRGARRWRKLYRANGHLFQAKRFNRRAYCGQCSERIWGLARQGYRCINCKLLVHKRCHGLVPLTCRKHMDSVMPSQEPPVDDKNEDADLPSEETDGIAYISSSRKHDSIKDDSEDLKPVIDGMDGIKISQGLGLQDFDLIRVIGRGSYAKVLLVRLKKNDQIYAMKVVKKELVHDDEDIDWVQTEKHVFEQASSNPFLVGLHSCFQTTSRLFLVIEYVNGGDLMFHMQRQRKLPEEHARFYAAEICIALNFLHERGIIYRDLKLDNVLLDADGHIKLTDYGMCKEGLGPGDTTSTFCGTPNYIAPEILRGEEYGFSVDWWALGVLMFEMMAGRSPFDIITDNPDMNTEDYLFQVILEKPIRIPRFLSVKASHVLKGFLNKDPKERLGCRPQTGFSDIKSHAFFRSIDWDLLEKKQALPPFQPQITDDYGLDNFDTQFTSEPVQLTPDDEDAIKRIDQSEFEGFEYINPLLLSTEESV

[9] = target: T3, Dual specificity protein kinase TTK (Homo sapiens, UniProt P33981)
T3 sequence (P33981 whole entry): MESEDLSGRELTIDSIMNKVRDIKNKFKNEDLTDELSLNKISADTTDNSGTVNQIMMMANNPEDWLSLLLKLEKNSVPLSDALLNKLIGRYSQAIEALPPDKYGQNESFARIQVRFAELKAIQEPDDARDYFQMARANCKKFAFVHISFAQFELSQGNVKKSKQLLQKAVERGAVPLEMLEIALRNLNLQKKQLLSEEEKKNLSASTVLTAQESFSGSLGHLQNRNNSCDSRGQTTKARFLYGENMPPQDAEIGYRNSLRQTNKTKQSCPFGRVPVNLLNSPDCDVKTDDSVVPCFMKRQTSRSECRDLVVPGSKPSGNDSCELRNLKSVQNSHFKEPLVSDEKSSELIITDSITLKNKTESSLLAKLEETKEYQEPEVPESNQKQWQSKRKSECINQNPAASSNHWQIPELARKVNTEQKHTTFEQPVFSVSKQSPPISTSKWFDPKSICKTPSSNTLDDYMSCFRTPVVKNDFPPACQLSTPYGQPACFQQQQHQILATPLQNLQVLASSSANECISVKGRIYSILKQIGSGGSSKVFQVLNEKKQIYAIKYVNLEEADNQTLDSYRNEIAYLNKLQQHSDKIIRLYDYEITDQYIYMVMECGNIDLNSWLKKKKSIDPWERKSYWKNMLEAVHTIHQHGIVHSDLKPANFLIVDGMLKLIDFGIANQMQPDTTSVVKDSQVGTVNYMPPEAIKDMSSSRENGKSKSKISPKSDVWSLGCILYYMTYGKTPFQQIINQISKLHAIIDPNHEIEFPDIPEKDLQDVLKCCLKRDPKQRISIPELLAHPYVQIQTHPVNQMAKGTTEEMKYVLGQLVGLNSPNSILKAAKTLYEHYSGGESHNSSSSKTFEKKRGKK

[10] = target: Mitogen-activated protein kinase 14 (Homo sapiens, UniProt Q16539)
Mitogen-activated protein kinase 14, sequence (Q16539 whole entry): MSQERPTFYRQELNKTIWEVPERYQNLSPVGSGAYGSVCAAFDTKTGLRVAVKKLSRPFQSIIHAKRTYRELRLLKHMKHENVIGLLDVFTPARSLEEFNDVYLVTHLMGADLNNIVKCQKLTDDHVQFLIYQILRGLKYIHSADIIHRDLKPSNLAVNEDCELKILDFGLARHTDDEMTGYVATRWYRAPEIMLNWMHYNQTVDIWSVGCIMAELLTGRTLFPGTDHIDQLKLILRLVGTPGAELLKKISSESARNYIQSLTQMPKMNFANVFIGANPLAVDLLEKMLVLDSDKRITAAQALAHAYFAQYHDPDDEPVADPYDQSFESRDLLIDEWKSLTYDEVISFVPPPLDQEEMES

Misshapen-like kinase 1 = Misshapen-like kinase 1 (Homo sapiens, UniProt Q8N4C8)
[11] = target: Serine/threonine-protein kinase 24 (Homo sapiens, UniProt Q9Y6E0)
Serine/threonine-protein kinase 24, sequence (Q9Y6E0 whole entry): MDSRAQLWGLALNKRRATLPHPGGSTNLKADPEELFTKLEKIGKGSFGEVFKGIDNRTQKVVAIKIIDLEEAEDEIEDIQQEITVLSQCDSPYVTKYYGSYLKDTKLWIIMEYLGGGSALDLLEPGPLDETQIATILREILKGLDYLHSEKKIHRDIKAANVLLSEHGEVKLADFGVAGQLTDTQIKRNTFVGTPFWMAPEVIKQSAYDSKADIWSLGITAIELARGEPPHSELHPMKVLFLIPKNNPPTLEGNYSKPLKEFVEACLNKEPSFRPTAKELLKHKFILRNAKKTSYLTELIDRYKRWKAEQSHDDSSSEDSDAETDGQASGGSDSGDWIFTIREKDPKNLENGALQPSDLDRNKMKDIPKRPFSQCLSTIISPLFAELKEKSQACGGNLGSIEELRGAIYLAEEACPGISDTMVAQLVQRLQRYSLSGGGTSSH

[12] = target: Choline-phosphate cytidylyltransferase A (Homo sapiens, UniProt P49585)
Choline-phosphate cytidylyltransferase A, sequence (P49585 whole entry): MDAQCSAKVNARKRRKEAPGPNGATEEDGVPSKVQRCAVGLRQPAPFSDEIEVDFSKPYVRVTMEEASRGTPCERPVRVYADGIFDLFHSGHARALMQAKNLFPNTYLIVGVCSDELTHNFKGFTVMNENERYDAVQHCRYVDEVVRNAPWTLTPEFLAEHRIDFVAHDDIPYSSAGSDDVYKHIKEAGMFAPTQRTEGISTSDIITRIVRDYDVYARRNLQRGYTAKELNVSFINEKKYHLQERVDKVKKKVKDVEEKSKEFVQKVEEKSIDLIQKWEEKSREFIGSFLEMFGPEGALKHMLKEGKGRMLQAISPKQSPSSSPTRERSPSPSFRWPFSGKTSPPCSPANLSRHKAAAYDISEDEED
Also: in the data inactive means no Kd found up to 30 µM.

Cyclin-dependent kinase 17, sequence (Q00537 whole entry): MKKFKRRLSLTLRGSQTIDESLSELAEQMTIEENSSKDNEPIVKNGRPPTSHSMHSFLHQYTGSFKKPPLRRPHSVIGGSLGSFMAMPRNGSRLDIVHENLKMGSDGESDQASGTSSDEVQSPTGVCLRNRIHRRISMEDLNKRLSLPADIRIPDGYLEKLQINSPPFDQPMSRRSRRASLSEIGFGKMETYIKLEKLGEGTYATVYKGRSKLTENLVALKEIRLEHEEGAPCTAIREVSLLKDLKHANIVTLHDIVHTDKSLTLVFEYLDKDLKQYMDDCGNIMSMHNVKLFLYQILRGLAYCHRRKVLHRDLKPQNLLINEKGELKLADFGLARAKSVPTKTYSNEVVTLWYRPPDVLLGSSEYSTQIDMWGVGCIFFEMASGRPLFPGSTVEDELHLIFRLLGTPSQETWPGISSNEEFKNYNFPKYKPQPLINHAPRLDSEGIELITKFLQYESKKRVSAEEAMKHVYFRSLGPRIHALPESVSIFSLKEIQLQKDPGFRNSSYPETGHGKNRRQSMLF
Cell division cycle 7-related protein kinase, sequence (O00311 whole entry): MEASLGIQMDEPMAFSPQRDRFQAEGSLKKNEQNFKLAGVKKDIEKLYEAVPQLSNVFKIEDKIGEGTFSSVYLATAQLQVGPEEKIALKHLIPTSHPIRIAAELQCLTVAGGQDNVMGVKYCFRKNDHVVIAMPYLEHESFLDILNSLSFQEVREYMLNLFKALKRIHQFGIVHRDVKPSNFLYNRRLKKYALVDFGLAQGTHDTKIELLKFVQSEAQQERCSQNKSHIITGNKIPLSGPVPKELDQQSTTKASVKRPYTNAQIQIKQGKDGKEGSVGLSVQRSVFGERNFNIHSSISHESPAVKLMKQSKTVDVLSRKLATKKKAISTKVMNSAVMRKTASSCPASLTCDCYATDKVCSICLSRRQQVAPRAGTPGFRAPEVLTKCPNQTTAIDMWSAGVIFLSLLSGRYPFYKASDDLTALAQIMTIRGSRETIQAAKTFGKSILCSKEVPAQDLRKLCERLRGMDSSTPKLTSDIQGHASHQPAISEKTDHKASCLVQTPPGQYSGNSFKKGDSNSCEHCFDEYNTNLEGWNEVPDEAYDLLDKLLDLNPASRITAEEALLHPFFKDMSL

| SMILES | Kd [1] | Kd [2] | Kd [3] | Kd [4] | Kd [5] | Kd [6] | Kd [7] | Kd [8] | Kd [9] | Kd [10] | Kd (Misshapen-like kinase 1) | Kd [11] | Kd [12] |
| --- | --- | --- | --- | --- | --- | --- | --- | --- | --- | --- | --- | --- | --- |
| C[C@@H]1CN(Cc2ccc(F)cc2)[C@@H](C)CN1C(=O)c1cc2c(C(=O)C(=O)N(C)C)cn(C)c2cc1Cl [TALMAPIMOD] | > 30 µM (inactive) | > 30 µM (inactive) | > 30 µM (inactive) | > 30 µM (inactive) | > 30 µM (inactive) | > 30 µM (inactive) | > 30 µM (inactive) | > 30 µM (inactive) | > 30 µM (inactive) |  |  |  |  |
| O=C1NC(=O)/C(=C/c2ccc3nccc(-c4ccncc4)c3c2)S1 [GSK-1059615] | > 30 µM (inactive) | > 30 µM (inactive) | > 30 µM (inactive) | > 30 µM (inactive) | > 30 µM (inactive) | > 30 µM (inactive) | > 30 µM (inactive) | > 30 µM (inactive) | > 30 µM (inactive) | > 30 µM (inactive) | > 30 µM (inactive) | > 30 µM (inactive) |  |
| CO[C@H]1C[C@@H]2CC[C@@H](C)[C@@](O)(O2)C(=O)C(=O)N2CCCC[C@H]2C(=O)O[C@H]([C@H](C)C[C@@H]2CC[C@@H](OCCO)[C@H](OC)C2)CC(=O)[C@H](C)/C=C(\C)[C@@H](O)[C@@H](OC)C(=O)[C@H](C)C[C@H](C)/C=C/C=C/C=C/1C [EVEROLIMUS] | > 30 µM (inactive) | > 30 µM (inactive) |  | > 30 µM (inactive) |  |  | > 30 µM (inactive) |  | > 30 µM (inactive) | > 30 µM (inactive) |  |  | > 30 µM (inactive) |
| Cc1ccc(-n2nc(C(C)(C)C)cc2NC(=O)NCc2cc(F)ccc2Oc2ccc3c(cnn3CCO)c2)cc1 [PEXMETINIB] | > 30 µM (inactive) | 0.402 µM (active) |  | > 30 µM (inactive) | > 30 µM (inactive) | > 30 µM (inactive) | > 30 µM (inactive) |  | > 30 µM (inactive) |  | > 30 µM (inactive) | > 30 µM (inactive) | > 30 µM (inactive) |
| COC(=O)N[C@@H](C)CNc1nccc(-c2cn(C(C)C)nc2-c2cc(Cl)cc(NS(C)(=O)=O)c2F)n1 [ENCORAFENIB] | > 30 µM (inactive) | > 30 µM (inactive) | > 30 µM (inactive) | > 30 µM (inactive) |  | 0.204 µM | > 30 µM (inactive) |  | > 30 µM (inactive) | > 30 µM (inactive) | > 30 µM (inactive) | > 30 µM (inactive) | 0.041 µM |
| COc1ccc(-c2ccc3c(N4CCOC[C@@H]4C)nc(N4CCOC[C@@H]4C)nc3n2)cc1CO [AZD-8055] |  | > 30 µM (inactive) |  | > 30 µM (inactive) | > 30 µM (inactive) | > 30 µM (inactive) | > 30 µM (inactive) | > 30 µM (inactive) | > 30 µM (inactive) | > 30 µM (inactive) | > 30 µM (inactive) | > 30 µM (inactive) |  |
| CCN1CCN(Cc2ccc(-c3cc4c(N[C@H](C)c5ccccc5)ncnc4[nH]3)cc2)CC1 [AEE-788] | > 30 µM (inactive) | > 30 µM (inactive) |  | > 30 µM (inactive) | > 30 µM (inactive) |  | > 30 µM (inactive) |  | > 30 µM (inactive) | > 30 µM (inactive) |  | > 30 µM (inactive) | > 30 µM (inactive) |
| CN1CCC(COc2cnc(-c3cccc(Cn4nc(-c5cccc(C#N)c5)ccc4=O)c3)nc2)CC1 [TEPOTINIB] |  | > 30 µM (inactive) |  |  | > 30 µM (inactive) | > 30 µM (inactive) | > 30 µM (inactive) | > 30 µM (inactive) | > 30 µM (inactive) |  | > 30 µM (inactive) |  |  |
| COC(=O)[C@@]1(O)C[C@H]2O[C@]1(C)n1c3ccccc3c3c4c(c5c6ccccc6n2c5c31)C(=O)NC4 [K-252A] |  | > 30 µM (inactive) | > 30 µM (inactive) | > 30 µM (inactive) | > 30 µM (inactive) | > 30 µM (inactive) |  |  | 0.03 µM | > 30 µM (inactive) | > 30 µM (inactive) | > 30 µM (inactive) |  |
| Cc1cc(-c2cc(O)ccc2Cl)cc2nnc(Nc3ccc(OCCN4CCCC4)cc3)nc12 | > 30 µM (inactive) | > 30 µM (inactive) | > 30 µM (inactive) | > 30 µM (inactive) | > 30 µM (inactive) | > 30 µM (inactive) | > 30 µM (inactive) | > 30 µM (inactive) | > 30 µM (inactive) | > 30 µM (inactive) |  | > 30 µM (inactive) |  |
| Cc1c(F)cc(C(=O)NC2CC2)cc1-c1ccc(C(=O)NCC(C)(C)C)cn1 [LOSMAPIMOD] |  | > 30 µM (inactive) |  |  |  |  | > 30 µM (inactive) |  | > 30 µM (inactive) |  | > 30 µM (inactive) | 0.011 µM |  |
| COc1cc(N2CCC(N3CCN(C)CC3)CC2)ccc1Nc1ncnc(Nc2ccccc2S(=O)(=O)C(C)C)n1 [ASP-3026] |  | > 30 µM (inactive) | > 30 µM (inactive) | > 30 µM (inactive) | > 30 µM (inactive) |  | > 30 µM (inactive) |  | > 30 µM (inactive) | > 30 µM (inactive) | > 30 µM (inactive) | > 30 µM (inactive) | > 30 µM (inactive) |
| O=c1sn(-c2cccc3ccccc23)c(=O)n1Cc1ccccc1 [TIDEGLUSIB] | > 30 µM (inactive) | > 30 µM (inactive) | > 30 µM (inactive) |  | > 30 µM (inactive) | > 30 µM (inactive) | > 30 µM (inactive) |  | > 30 µM (inactive) | > 30 µM (inactive) | > 30 µM (inactive) | > 30 µM (inactive) |  |
| CNS(=O)(=O)Nc1nccc(Cc2c(C)c3ccc(Oc4ncccn4)cc3oc2=O)c1F [AVUTOMETINIB] | > 30 µM (inactive) | > 30 µM (inactive) |  | > 30 µM (inactive) |  | > 30 µM (inactive) | > 30 µM (inactive) |  | > 30 µM (inactive) | > 30 µM (inactive) |  | > 30 µM (inactive) |  |

Reference: ChEMBL document CHEMBL3991601, “The target landscape of clinical kinase drugs” (Science, 2017)
